Biological target: T1, RAC-alpha serine/threonine-protein kinase [139-480,S378A,S381A,T450D,S473D] (Homo sapiens, UniProt P31749, S378A/S381A/S473D/T450D)
T1 construct: 139-480
Test: Akt Kinase Assay
Details: not given
Procedure: The kinase assay uses His-Akt1 and a biotinylated peptide as substrate. The biotinylated peptides were immobilized on streptavidin-coated FLASH plates. After reaction, the 33P-phosphopeptide captured on the FLASH plates was measured with a TopCount Packard Instruments […] (Packard Instruments, Boston, MA).

T1 sequence (P31749 139-480 S378A/S381A/T450D/S473D): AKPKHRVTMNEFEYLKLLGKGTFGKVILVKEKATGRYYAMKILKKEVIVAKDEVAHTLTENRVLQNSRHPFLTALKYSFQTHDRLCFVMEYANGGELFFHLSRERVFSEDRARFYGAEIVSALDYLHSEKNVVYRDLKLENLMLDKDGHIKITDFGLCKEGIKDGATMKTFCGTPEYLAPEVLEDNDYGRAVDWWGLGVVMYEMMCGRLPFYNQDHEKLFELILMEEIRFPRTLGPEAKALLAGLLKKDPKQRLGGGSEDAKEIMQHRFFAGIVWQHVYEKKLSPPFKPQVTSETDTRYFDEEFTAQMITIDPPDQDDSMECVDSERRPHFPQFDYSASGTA

IC50 [µM]	SMILES
0.126	Cc1n[nH]c2ccc(-c3cncc(OC[C@@H](N)Cc4cccc(-c5ccccc5)c4)c3)cc12 [5-{5-[(2S)-2-amino-3-(3-phenylphenyl)propoxy]pyridin-3-yl}-3-methyl-1H-indazole]
0.0036	Cc1n[nH]c2ccc(-c3cncc(OC[C@@H](N)Cc4ccc(Cl)c(F)c4)c3)cc12 [5-{5-[(2S)-2-amino-3-(4-chloro-3-fluorophenyl)propoxy]pyridin-3-yl}-3-methyl-1H-indazole]
0.0018	Cc1n[nH]c2ccc(-c3cncc(OC[C@@H](N)Cc4ccc(F)c(C(F)(F)F)c4)c3)cc12 [5-{5-[(2S)-2-amino-3-[4-fluoro-3-(trifluoromethyl)phenyl]propoxy]pyridin-3-yl}-3-methyl-1H-indazole]
0.0009	Cc1n[nH]c2ccc(-c3cncc(OC[C@@H](N)Cc4cccc(I)c4)c3)cc12 [5-{5-[(2S)-2-amino-3-(3-iodophenyl)propoxy]pyridin-3-yl}-3-methyl-1H-indazole]
0.0056	Cc1n[nH]c2ccc(-c3cncc(OC[C@@H](N)Cc4cccc(Cl)c4Cl)c3)cc12 [5-{5-[(2S)-2-amino-3-(2,3-dichlorophenyl)propoxy]pyridin-3-yl}-3-methyl-1H-indazole]
0.0021	Cc1n[nH]c2ccc(-c3cncc(OC[C@@H](N)Cc4cccc(Br)c4)c3)cc12 [(2S)-1-(3-bromophenyl)-3-{[5-(3-methyl-1H-indazol-5-yl)pyridin-3-yl]oxy}propan-2-amine]
0.0031	Cc1n[nH]c2ccc(-c3cncc(OC[C@@H](N)Cc4ccc(F)c(Cl)c4)c3)cc12 [(2S)-1-(3-chloro-4-fluorophenyl)-3-{[5-(3-methyl-1H-indazol-5-yl)pyridin-3-yl]oxy}propan-2-amine]
0.011	Cc1cc(C[C@H](N)COc2cncc(-c3ccc4[nH]nc(C)c4c3)c2)ccc1F [(2S)-1-(3-methyl-4-fluorophenyl)-3-{[5-(3-methyl-1H-indazol-5-yl)pyridin-3-yl]oxy}propan-2-amine]
0.0018	Cc1n[nH]c2ccc(-c3cncc(OC[C@@H](N)Cc4ccc(Cl)c(Cl)c4)c3)cc12 [(2S)-1-(3,4-dichlorophenyl)-3-{[5-(3-methyl-1H-indazol-5-yl)pyridin-3-yl]oxy}propan-2-amine]
0.029	Cc1n[nH]c2ccc(-c3cncc(OC[C@@H](N)Cc4ccccc4Cl)c3)cc12 [5-{5-[(2S)-2-amino-3-(2-chlorophenyl)propoxy]pyridin-3-yl}-3-methyl-1H-indazole]
0.018	Cc1n[nH]c2ccc(-c3cncc(OC[C@@H](N)Cc4ccc(C(F)(F)F)cc4)c3)cc12 [(2S)-1-{[5-(3-methyl-1H-indazol-5-yl)pyridin-3-yl]oxy}-3-[4-(trifluoromethyl)phenyl]propan-2-amine]
0.011	Cc1n[nH]c2ccc(-c3cncc(OC[C@@H](N)Cc4ccc(Cl)cc4)c3)cc12 [(2S)-1-(4-chlorophenyl)-3-{[5-(3-methyl-1H-indazol-5-yl)pyridin-3-yl]oxy}propan-2-amine]
0.023	Cc1n[nH]c2ccc(-c3cncc(OC[C@@H](N)Cc4ccccc4Br)c3)cc12 [(2S)-1-(2-bromophenyl)-3-{[5-(3-methyl-1H-indazol-5-yl)pyridin-3-yl]oxy}propan-2-amine]
0.0024	Cc1ccc(C[C@H](N)COc2cncc(-c3ccc4[nH]nc(C)c4c3)c2)cc1F [5-{5-[(2S)-2-amino-3-(3-fluoro-4-methylphenyl)propoxy]pyridin-3-yl}-3-methyl-1H-indazole]
0.0013	Cc1n[nH]c2ccc(-c3cncc(OC[C@@H](N)Cc4ccc(Br)c(F)c4)c3)cc12 [5-{5-[(2S)-2-amino-3-(4-bromo-3-fluorophenyl)propoxy]pyridin-3-yl}-3-methyl-1H-indazole]
0.0203	Cc1n[nH]c2ccc(-c3cncc(OC[C@@H](N)Cc4ccc(OC(F)(F)F)cc4)c3)cc12 [(2S)-1-{[5-(3-methyl-1H-indazol-5-yl)pyridin-3-yl]oxy}-3-[4-(trifluoromethoxy)phenyl]propan-2-amine]
0.0031	Cc1n[nH]c2ccc(-c3cncc(OC[C@@H](N)Cc4ccc(C(F)(F)F)c(F)c4)c3)cc12 [5-{5-[(2S)-2-amino-3-[3-fluoro-4-(trifluoromethyl)phenyl]propoxy]pyridin-3-yl}-3-methyl-1H-indazole]
0.0012	Cc1n[nH]c2ccc(-c3cncc(OC[C@@H](N)Cc4cccc(C(F)(F)F)c4)c3)cc12 [(2S)-1-{[5-(3-methyl-1H-indazol-5-yl)pyridin-3-yl]oxy}-3-[3-(trifluoromethyl)phenyl]propan-2-amine]
0.047	Cc1n[nH]c2ccc(-c3cncc(OC[C@@H](N)Cc4cccc(OCCN)c4)c3)cc12 [5-{5-[(2S)-2-amino-3-[3-(2-aminoethoxy)phenyl]propoxy]pyridin-3-yl}-3-methyl-1H-indazole]

Second part, the molecule before the results:

SMILES	IC50 [µM]
Cc1n[nH]c2ccc(-c3cncc(OC[C@@H](N)Cc4ccc(Br)cc4F)c3)cc12 [5-{5-[(2S)-2-amino-3-(4-bromo-2-fluorophenyl)propoxy]pyridin-3-yl}-3-methyl-1H-indazole]	0.01
Cc1cc(F)ccc1C[C@H](N)COc1cncc(-c2ccc3[nH]nc(C)c3c2)c1 [5-{5-[(2S)-2-amino-3-(4-fluoro-2-methylphenyl)propoxy]pyridin-3-yl}-3-methyl-1H-indazole]	0.006
Cc1n[nH]c2cnc(-c3cncc(OC[C@@H](N)Cc4cccc(F)c4F)c3)cc12 [(2S)-1-(2,3-difluorophenyl)-3-{[5-(3-methyl-1H-pyrazolo[3,4-c]pyridin-5-yl)pyridin-3-yl]oxy}propan-2-amine]	0.005
Cc1cc(C)c(C[C@H](N)COc2cncc(-c3ccc4[nH]nc(C)c4c3)c2)c(C)c1 [(2S)-1-(2,4,6-trimethylphenyl)-3-{[5-(3-methyl-1H-indazol-5-yl)pyridin-3-yl]oxy}propan-2-amine]	0.039
Cc1n[nH]c2ccc(-c3cncc(OC[C@@H](N)Cc4cccc(OCCC5CCNCC5)c4)c3)cc12 [5-{5-[(2S)-2-amino-3-{3-[2-(piperidin-4-yl)ethoxy]phenyl}propoxy]pyridin-3-yl}-3-methyl-1H-indazole]	0.29
Cc1n[nH]c2ccc(-c3cncc(OC[C@@H](N)Cc4cccc(OCC5CCNCC5)c4)c3)cc12 [5-{5-[(2S)-2-amino-3-[3-(piperidin-4-ylmethoxy)phenyl]propoxy]pyridin-3-yl}-3-methyl-1H-indazole]	0.0068
Cc1n[nH]c2ccc(-c3cncc(OC[C@@H](N)Cc4cccc(OCCN5CCOCC5)c4)c3)cc12 [4-(2-{3-[(2S)-2-amino-3-{[5-(3-methyl-1H-indazol-5-yl)pyridin-3-yl]oxy}propyl]phenoxy}ethyl)morpholine]	0.751
Cc1n[nH]c2ccc(-c3cncc(OC[C@@H](N)Cc4cccc5c4OC(F)(F)O5)c3)cc12 [5-{5-[(2S)-2-amino-3-(2,2-difluoro-2H-1,3-benzodioxol-4-yl)propoxy]pyridin-3-yl}-3-methyl-1H-indazole]	0.014
Cc1n[nH]c2ccc(-c3cncc(OC[C@@H](N)Cc4cc(Cl)cc(Cl)c4)c3)cc12 [(2S)-1-(3,5-dichlorophenyl)-3-{[5-(3-methyl-1H-indazol-5-yl)pyridin-3-yl]oxy}propan-2-amine]	0.0207
Cc1n[nH]c2cnc(-c3cncc(OC[C@@H](N)Cc4cccc(C(F)(F)F)c4)c3)cc12 [3-[(2S)-2-amino-3-[3-(trifluoromethyl)phenyl]propoxy]-5-{3-methyl-1H-pyrazolo[3,4-c]pyridin-5-yl}pyridine]	0.0006
Cc1n[nH]c2ccc(-c3cncc(OC[C@@H](N)Cc4cc(C(F)(F)F)ccc4F)c3)cc12 [5-{5-[(2S)-2-amino-3-[2-fluoro-5-(trifluoromethyl)phenyl]propoxy]pyridin-3-yl}-3-methyl-1H-indazole]	0.0012
Cc1n[nH]c2ccc(-c3cncc(OC[C@@H](N)Cc4cc(F)cc(C(F)(F)F)c4)c3)cc12 [(2S)-1-[5-fluoro-3-(trifluoromethyl)phenyl]-3-{[5-(3-methyl-1H-indazol-5-yl)pyridin-3-yl]oxy}propan-2-amine]	0.0133
Cc1n[nH]c2ccc(-c3cncc(OC[C@@H](N)Cc4ccc(C(F)(F)F)cc4F)c3)cc12 [5-{5-[(2S)-2-amino-3-[2-fluoro-4-(trifluoromethyl)phenyl]propoxy]pyridin-3-yl}-3-methyl-1H-indazole]	0.0121
Cc1n[nH]c2ccc(-c3cncc(OC[C@@H](N)Cc4cc(C(F)(F)F)cc(C(F)(F)F)c4)c3)cc12 [5-{5-[(2S)-2-amino-3-[3,5-bis(trifluoromethyl)phenyl]propoxy]pyridin-3-yl}-3-methyl-1H-indazole]	0.057

Same assay, conditions: pH 7.5; 22 °C

IC50 [µM]	SMILES
2.65	N[C@H](COc1cncc(-c2ccc3c(c2)CC(=O)N3)c1)Cc1ccccc1 [5-(5-{[(2S)-2-amino-3-phenylpropyl]oxy}pyridin-3-yl)-1,3-dihydro-2H-indol-2-one]
0.0655	Cc1n[nH]c2ccc(-c3cncc(OC[C@@H](N)Cc4c(F)cccc4F)c3)cc12 [5-{5-[(2S)-2-amino-3-(2,6-difluorophenyl)propoxy]pyridin-3-yl}-3-methyl-1H-indazole]
0.016	N[C@H](COc1cncc(-c2ccc3c(c2)/C(=C/c2ccc[nH]2)C(=O)N3)c1)Cc1ccccc1 [(3Z)-5-{5-[(2S)-2-amino-3-phenylpropoxy]pyridin-3-yl}-3-(1H-pyrrol-2-ylmethylidene)-2,3-dihydro-1H-indol-2-one]
0.0085	Cc1n[nH]c2ccc(-c3cncc(OC[C@@H](N)Cc4cccc(F)c4F)c3)cc12 [5-{5-[(2S)-2-amino-3-(2,3-difluorophenyl)propoxy]pyridin-3-yl}-3-methyl-1H-indazole]

The next lines start with the molecule.

SMILES	IC50 [µM]
Cc1n[nH]c2ccc(-c3cncc(OC[C@@H](N)Cc4c(F)cc(F)cc4F)c3)cc12 [(2S)-1-(2,4,6-trifluorophenyl)-3-{[5-(3-methyl-1H-indazol-5-yl)pyridin-3-yl]oxy}propan-2-amine]	0.031
Cc1n[nH]c2ccc(-c3cncc(OC[C@@H](N)Cc4ccc(F)c(F)c4F)c3)cc12 [5-{5-[(2S)-2-amino-3-(2,3,4-trifluorophenyl)propoxy]pyridin-3-yl}-3-methyl-1H-indazole]	0.012

Source: BindingDB's records for doi:10.1021/jm0701019 (Abbott Laboratories, 2007)
